This note sets out measurements from patent EP2906547B2, “COSMETIC COMPOSITIONS CONTAINING AT LEAST ONE HYDROTROPE AND AT LEAST ONE ACTIVE COMPOUND” (priority 2012, dated 2014).

Values after ≈ are worked out from the molar mass of the structure shown. Read-outs that look alike come from different tables or passages of the source.

The nature of data set [1]: Solubility of adenosine in water with and without hydrotropes.
Data set [2] in a line: Solubility of baicalin in water as a function of pH. In kind it is physicochemical. To be noted: for solubility: water.
A short description of data set [3]: physchem. As for the experimental part:
Another aspect of the text discloses a method for preparing the aqueous compositions comprising including in the composition at least one phenolic compound and at least one hydrotrope in an amount sufficient to solubilize the phenolic compound, such as a polyphenol, in water. A hydrotrope solution is prepared by completely dissolving one or more hydrotropic agents into water. At least one phenolic compound is then added in and mixed using a stirring bar or any other mixer. […] Everything is prepared at room temperature to keep the stability of the phenolic compound(s).
Everything is prepared at room temperature to keep the stability of the phenolic compounds.

The nature of data set [4]: Stability of solutions on dilution in water.
The mark [5] stands for this setting: 5% nicotinamide and 5% caffeine, room temperature.
[6] abbreviates: 5% nicotinamide, 5% caffeine, water.

The solubility (thermodynamic) is the concentration in solution at equilibrium with solid. As for `Nc1ncnc2c1ncn2[C@@H]1O[C@H](CO)[C@@H](O)[C@H]1O` [Adenosine], the “Solubility in water with hydrotropes” value in data set [1] (setting [5]) is >3 %(w/w). In data set [1] (water), the solubility (thermodynamic) was under 5000 µg/mL.

As a reminder, the solubility is the dissolved amount per volume that the medium holds. Take `O=C(O)[C@H]1O[C@@H](Oc2cc3oc(-c4ccccc4)cc(=O)c3c(O)c2O)[C@H](O)[C@@H](O)[C@@H]1O` [Baicalin]: the “pH at which degradation happens” value in data set [2] (in water) was over 5. Also, the solubility in data set [2] (pH 3, water, in water, pH 3, read-out: Solubility) is 16 µg/mL (≈ 35.8 µM); in data set [2] (pH 3.5, water, in water, pH 3.5, read-out: Solubility), 21 µg/mL (≈ 47 µM); in data set [2] (pH 4, water, in water, pH 4, read-out: Solubility), 40 µg/mL (≈ 89.6 µM); in data set [2] (pH 4.5, water, in water, pH 4.5, read-out: Solubility) it was 84 µg/mL (≈ 188 µM); in data set [2] (pH 4.5, water, without hydrotrope, natural pH -4.5, read-out: solubility in water), under 100 µg/mL; in data set [2] (pH 5, water, in water, pH 5, read-out: Solubility), 350 µg/mL (≈ 784 µM). For the same molecule, in data set [3] (2% caffeine in water), the water solubility stood at 0.11%. For the same molecule, in data set [3] (setting [6]), the “Solubility in water with hydrotropes” value is reported as >1 % (w/w). The “amount solubilized in water” value in data set [3] (setting [6]) was “approximately 1%”. The solubility (thermodynamic) in data set [3] (water) was under 100 µg/mL. Besides, the “stability of dilution in water” value in data set [4] (hydrotrope solution diluted in water) was “still stable”; in data set [4] (solution in organic solvent (e.g. PEG-4) diluted in water, crystallization or precipitation occurs) it was “not stable any more”.

Consider `O=c1oc2c(O)c(O)cc3c(=O)oc4c(O)c(O)cc1c4c23` [Ellagic acid], for which, in data set [3] (setting [5]), the “Solubility in water with hydrotropes” value is listed as >0.01 % (w/w). The solubility (thermodynamic) in data set [3] (water) is under 10 µg/mL.

For `COc1ccc([C@@H]2CC(=O)c3c(O)cc(O[C@@H]4O[C@H](CO)[C@@H](O)[C@H](O)[C@H]4O[C@@H]4O[C@@H](C)[C@H](O)[C@@H](O)[C@H]4O)cc3O2)cc1O` [Neohesperidin], the “Solubility in water without hydrotropes” value in data set [3] (water) is listed as <0.05 % (w/w).

For the molecule `Oc1ccc(C=Cc2cc(O)cc(O)c2)cc1` [Resveratrol], the “Solubility in water with hydrotropes” value in data set [3] (setting [6]) is >0.75 % (w/w). In data set [3] (water), this molecule came in with a solubility (thermodynamic) of under 50 µg/mL.

For the molecule `O=C1c2c(O)cc(O)cc2O[C@H](c2ccc(O)c(O)c2)[C@H]1O` [Taxifolin], in data set [3] (setting [5]), the “Solubility in water with hydrotropes” value is >1 % (w/w). Moreover, in data set [3] (water), the solubility (thermodynamic) is under 1000 µg/mL.
